Structures can show the parent of a compound that is named as a salt.
Test: Particle-size distribution (PSD) analysis, Malvern Mastersizer 3000
Type: physicochemical
Conditions: certificate of analysis, FIG. 1; after spiral jet-mill micronization
From the text: PARTICLE-SIZE DISTRIBUTION (PSD) ANALYTICAL METHOD: Equipment Malvern Mastersizer 3000 equipped with Hydro MV dispersion unit Dispersant Preparation—1. Fill the dispersion unit with hexane—2. Check that the channel 1 of background signal is less than 80 and no anomalous spikes are present—3. Check the background signal: it has to be stable and complying with the following limits: Channel 1<100, Channel 20<60. Sample Preparation—Randomize the sample by manually tumbling and rolling for 30 seconds, weigh approximately 15 mg of powder in a 100 mL Erlenmeyer flask, add 2 mL of Span 85 (Sorbitane trioleate; 5% w/w water solution). A homogeneous mixture, using the tip of a small stainless steel spatula, has to be obtained. Using a Pasteur pipette add 1 mL of water and homogenize the suspension. Repeat this operation until a volume of 8-10 mL is reached. Sonicate the sample for 5 seconds in an ultrasonic bath (25 kHz). Procedure—1. Once a stable background signal is obtained, proceed with the SOP—2. Add the sample until the obscuration target is reached. Avoid droplets to fall directly into the liquid when adding the sample suspension putting the pipette tip under water—3. Initiate the measurement—4. The particle size distribution values (D10, D50 and D90) are taken directly from the Malvern screen. All three values determined for a sample are average and rounded to obtain the final values.

For CCCN1C[C@H](CSC)C[C@@H]2c3cccc4[nH]cc(c34)C[C@H]21 [micronized pergolide mesylate, (8β)-8-[(methylthio)methyl]-6-propylergoline], the median particle size was 13.3 μm and the “particle size distribution D90 value” was 39.4 μm.

— patent US20190374534A1, “LIQUID PHARMACEUTICAL COMPOSITIONS COMPRISING PERGOLIDE” (Boehringer Ingelheim Vetmedica GmbH, priority 2018, published 2019)
